Legend:
[1] = tested on: prostate cancer (LNCaP) cell extracts; test: BER capacity of prostate cancer cell extracts (fluorescence assay); assay type: biochemical, human; conditions: 25 μg cell extracts, inhibitor 200 μM, 37° C. 30 minutes; FIG. 7
Method: Cell pellets were re-suspended in lysis buffer that contained 10 mM Tris-HCl, pH 7.8, 200 mM KCl, 1 mM EDTA, 20% glycerol, 0.1% Nonidet P-40, 1 mM DTT with proteinase inhibitors (Roche Diagnostics Corporation, Indianapolis, Ind.). Cell suspension was subsequently subjected to rotation at 4° C. for 2 hours. After rotation, cell lysates were centrifuged at 14,000 rpm at 4° C. for 30 minutes to remove cell debris. The supernatant was recovered and further dialyzed into BER reaction buffer containing 50 mM Tris-HCl, pH 7.5, 50 mM KCl, 0.1 mM EDTA, 0.1 mg/ml bovine serum albumin, and 0.01% Nonidet P-40. Protein concentration of cell lysates was determined by Bradford assay. Cell lysates were aliquoted and stored at −80° C. for subsequent assay.
Substrates (25 nM) were pre-incubated with 25 nM purified APE1 at 37° C. for 15 minutes, and completely converted into ssDNA break intermediates for subsequent BER reactions. In vitro BER of a THF base lesion was performed by incubating APE1 precut substrate with 25 μg cell extracts in 10 μl-reaction mixtures that contained BER reaction buffer with 5 mM Mg^2+, 50 μM dNTP and 2 mM ATP in the absence or presence of inhibitors. Reaction mixtures were assembled on ice and incubated at 37° C. for 30 minutes.
10 μl-reaction mixtures were then transferred to […] black plates (Thermo Fisher Scientific, Pittsburgh, Pa.) and subjected to fluorescence reading. Each substrates/lysate/inhibitor combination was run in triplicate.
[…] plates were read at an excitation wavelength of 485±20 nm and an emission wavelength of 528±20 nm on a Synergy HTX Plate Reader (Bio-Tek, Winooski, Vt.). Data were exported to Excel for statistical analysis.
The fluorescence reading of each well needs to be abstracted by the reading from the well with 10 μl-BER reaction buffer alone before further data analysis. Normalized fluorescence data were averaged and plotted as “Average±Standard Deviation.” […]

[2] = target: Exo III (Escherichia coli, UniProt P09030); conditions: 0.5 U EXO III
Chain of Exo III (P09030 whole entry): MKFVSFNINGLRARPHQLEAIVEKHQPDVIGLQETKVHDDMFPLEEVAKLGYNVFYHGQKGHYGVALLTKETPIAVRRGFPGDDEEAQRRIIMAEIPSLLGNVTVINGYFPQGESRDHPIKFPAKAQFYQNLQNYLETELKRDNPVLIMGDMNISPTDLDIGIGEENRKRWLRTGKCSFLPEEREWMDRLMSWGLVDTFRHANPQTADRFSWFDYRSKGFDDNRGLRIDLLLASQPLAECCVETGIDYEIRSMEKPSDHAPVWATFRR
Method: 0.5 U EXO III was added into each reaction and incubated at 37° C. for 10 minutes to release fluorescence signal. Reaction mixtures were incubated at 50° C. for additional 30 min to ensure the complete release of 6-FAM conjugated unrepaired DNA substrates. EDTA was added into each reaction at a final concentration of 50 mM to terminate the reactions. Fluorescence readings were measured at excitation wavelength of 485±20 nm and emission wavelength of 528±20 nm on Synergy HTX Plate Reader. Data were exported for statistical analysis. The fluorescence reading of each well were adjusted by subtracting background reading signals from a control containing substrate […]. Normalized fluorescence data were averaged and plotted with corresponding statistical errors.

Row | SMILES | effects on reducing BER capacity of prostate cancer (LNCaP) cell extracts [1] | inhibitory effects on Exo III activity [2]
1 | NC1=NC(=O)N(C2CC(O)C(COP(=O)(O)O)O2)C(I)C1 (stereo not drawn) [NSC-124854] | not significant | do not exhibit any inhibitory effects
2 | Cc1cc(S(=O)(=O)Nc2n[nH]c(Nc3ccc(Cl)cc3)n2)c(S)cc1Cl [NSC-666715] | not significant | do not exhibit any inhibitory effects
3 | Cc1cc(S(=O)(=O)Nc2n[nH]c(Nc3ccc4ccccc4c3)n2)c(S)cc1Cl [NSC-666719] | not significant | do not exhibit any inhibitory effects

From patent US9809843B1, “High throughput measurement of DNA base lesion repair capacity” (THE FLORIDA INTERNATIONAL UNIVERSITY BOARD OF TRUSTEES, priority 2016, dated 2017)
